The target in one series is human D2 receptor (Homo sapiens (Human), UniProt P14416). The series can be described thus: Radioligand binding assay, [3H]-spiperone, human D2 receptor. The note with it: membranes of HEK293 EBNA cells expressing human D2; 0.7 nM [3H]-spiperone. On the procedure: (§1) HEK293 EBNA cells were transiently transfected with expression plasmids encoding for the human D2 or D3 or for the human 5-HT2A receptor, respectively. The cells were harvested 48 h post-transfection, washed three times with cold PBS and stored at −80° C. prior to use. The pellet was suspended in cold 50 mM Tris-HCl buffer comprising 10 mM EDTA (pH 7.4) and was homogenized with a Polytron (Kinematica AG, Basel, Switzerland) for 20-30 sec at 12.000 rpm. After centrifugation at 48.000×g for 30 min at 4° C., the pellet was resuspended in cold 10 mM Tris-HCl buffer comprising 0.1 mM EDTA (pH 7.4), homogenized, and centrifuged as above. This pellet was further resuspended in a smaller volume of ice cold 10 mM Tris-HCl buffer comprising 0.1 mM EDTA (pH 7.4) and homogenized with a Polytron for 20-30 sec at 12.000 rpm. The protein content of this homogenate was determined with the Bio-Rad (Bradford) Protein Assay (Biorad Laboratories GmbH, München, Germany) according to the instructions of the manufacturer using gamma globulin as the standard. This homogenate was stored at −80° C. in aliquots and thawed immediately prior to use.
Chain of human D2 receptor (P14416 whole entry): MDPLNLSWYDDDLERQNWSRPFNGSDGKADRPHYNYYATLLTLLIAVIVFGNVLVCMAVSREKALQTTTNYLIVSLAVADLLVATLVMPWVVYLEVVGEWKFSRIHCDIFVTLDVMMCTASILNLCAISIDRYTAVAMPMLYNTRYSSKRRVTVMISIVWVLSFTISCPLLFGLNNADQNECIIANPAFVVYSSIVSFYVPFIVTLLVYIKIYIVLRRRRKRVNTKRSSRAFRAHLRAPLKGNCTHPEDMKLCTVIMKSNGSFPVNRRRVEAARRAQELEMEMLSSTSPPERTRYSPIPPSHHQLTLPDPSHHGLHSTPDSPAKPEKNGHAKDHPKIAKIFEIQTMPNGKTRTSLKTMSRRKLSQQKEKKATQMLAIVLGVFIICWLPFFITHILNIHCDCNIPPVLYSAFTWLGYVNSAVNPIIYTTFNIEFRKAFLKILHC
(§2) Aliquots of membrane preparations were thawed at RT, resuspended in assay buffer (D2, D3: 50 mM Tris-HCl, 120 mM NaCl, 5 mM MgCl2, 1 mM EDTA, 5 mM KCl, 1.5 mM CaCl2, pH=7.4; 5-HT2A: 50 mM Tris-HCl, 10 mM MgCl2, 1 mM EGTA, pH=7.4), homogenized with a Polytron for 20-30 sec at 12.000 rpm and adjusted to a final concentration of approximately 7.5 μg protein/well (D2, D3) and 15 μg protein/well (5-HT2A), respectively.
(§3) The binding affinity (Ki) of the compounds was determined using radioligand binding. Membranes were incubated in a total volume of 200 μl with a fixed concentration of radioligand (final concentration approximately 0.7 nM [^3H]-spiperone for D2, 0.5 nM [^3H]-spiperone for D3, and 1.1 nM [^3H]-ketanserin for 5-HT2A) and ten concentrations of test compound in ranging between 10 μM-0.1 nM for 1 h at RT. […] The nonspecific binding was determined with equally composed reaction mixtures in the presence of 10 μM unlabelled spiperone. Per well 45 μl of Microscint 40 (Perkin Elmer, Schwerzenbach, Switzerland) was added, plates for sealed, shaken for 20 min and counted for 3 min on a Topcount Microplate Scintillation Counter (Can berra Packard SA, Zürich, Switzerland) with quenching correction.
(§4) The CPM value for each duplicate of a concentration of competing compound was averaged (y1), then the % specific binding was calculated according to the equation (((y1−non-specific)/(total binding−non-specific))×100). Graphs were plotted with the % specific binding using XLfit, a curve fitting program that iteratively plots the data using Levenberg-Marquardt algorithm. […] The affinity constant (K) was calculated using the Cheng-Prusoff equation Ki=(IC50/1+([L]/Kd), where [L] is the concentration of radioligand and Kd is the dissociation constant of the radioligand at the receptor as determined by the saturation isotherm.

A further series concerns the target human 5-HT2A receptor (Homo sapiens (Human), UniProt P28223). Kind of series: Radioligand binding assay, [3H]-ketanserin, human 5-HT2A receptor. On the procedure: as §1, §2, §3
as §4, with “algorithm. The single site competition analysis equation used was y=A+((B−A)/(1+((x/C)D))), where y is the % specific binding, A is the minimum y, B is the maximum y, C is the IC50, x is the log 10 of the concentration of the competing compound and D is the slope of the curve (the Hill Coefficient).” for “algorithm.”

A further series concerns the target human D3 receptor (Homo sapiens (Human), UniProt P35462). Kind of series: Radioligand binding assay, [3H]-spiperone, human D3 receptor. To be noted: membranes of HEK293 EBNA cells expressing human D3; 0.5 nM [3H]-spiperone. The method, then:
as §1, §2, §3
as §4, with “algorithm. The single site competition analysis equation used was y=A+((B−A)/(1+((x/C)D))), where y is the % specific binding, A is the minimum y, B is the maximum y, C is the IC50, x is the log 10 of the concentration of the competing compound and D is the slope of the curve (the Hill Coefficient).” for “algorithm.”

[1] abbreviates: membranes of HEK293 EBNA cells expressing human 5-HT2A, 1.1 nM [3H]-ketanserin.

Read-outs that look alike come from different tables or passages of the source.

Usually Ki stands for the dissociation constant of the complex between target and ligand, obtained from inhibition or displacement. The term melting point denotes the temperature of the solid-liquid transition.

Chain of human 5-HT2A receptor (P28223 whole entry): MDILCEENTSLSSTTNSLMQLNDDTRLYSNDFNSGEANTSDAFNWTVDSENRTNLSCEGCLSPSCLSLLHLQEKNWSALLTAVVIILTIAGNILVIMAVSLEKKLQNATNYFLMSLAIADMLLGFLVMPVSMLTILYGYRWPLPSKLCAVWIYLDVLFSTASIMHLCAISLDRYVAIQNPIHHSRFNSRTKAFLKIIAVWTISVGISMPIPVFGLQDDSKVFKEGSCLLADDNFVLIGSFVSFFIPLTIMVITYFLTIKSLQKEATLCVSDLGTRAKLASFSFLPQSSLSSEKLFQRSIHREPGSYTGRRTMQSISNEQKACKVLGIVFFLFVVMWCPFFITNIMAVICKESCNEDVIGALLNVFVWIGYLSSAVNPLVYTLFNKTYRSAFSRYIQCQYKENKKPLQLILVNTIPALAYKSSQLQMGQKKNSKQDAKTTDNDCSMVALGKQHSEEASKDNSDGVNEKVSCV
Chain of human D3 receptor (P35462 whole entry): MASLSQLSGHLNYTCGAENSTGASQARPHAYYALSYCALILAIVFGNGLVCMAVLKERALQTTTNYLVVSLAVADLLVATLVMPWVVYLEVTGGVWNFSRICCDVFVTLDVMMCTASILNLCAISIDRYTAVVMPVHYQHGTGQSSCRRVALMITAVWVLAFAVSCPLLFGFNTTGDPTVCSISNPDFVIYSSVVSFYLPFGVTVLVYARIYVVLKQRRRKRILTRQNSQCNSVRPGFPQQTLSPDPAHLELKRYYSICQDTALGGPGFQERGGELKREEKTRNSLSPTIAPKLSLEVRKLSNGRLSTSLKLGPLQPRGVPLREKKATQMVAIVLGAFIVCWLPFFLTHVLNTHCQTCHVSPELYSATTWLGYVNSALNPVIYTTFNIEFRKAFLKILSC

The molecule `O=C(C[C@H]1COCCO1)N[C@H]1CC[C@H](CCN2CCN(c3nccc4c3CCO4)CC2)CC1` [Example 67, trans-N-(4-{2-[4-(2,3-Dihydro-furo[3,2-c]pyridin-4-yl)-piperazin-1-yl]-ethyl}-cyclohexyl)-2-(S)-[1,4]dioxan-2-yl-acetamide] displayed a melting point of 192 °C. The Ki on human D2 receptor was determined as 1460 nM. Besides, the inhibition constant (Ki) at human 5-HT2A receptor (setting [1]) was found to be 8.15 nM.
In turn, `O=C(N[C@H]1CC[C@H](CCN2CCN(c3nccc4c3CCO4)CC2)CC1)c1ccnc2ccccc12` [Example 62, Quinoline-4-carboxylic acid trans-(4-{2-[4-(2,3-dihydro-furo[3,2-c]pyridin-4-yl)-piperazin-1-yl]-ethyl}-cyclohexyl)-amide] came in with a melting point of 210 °C. On human D3 receptor, the Ki was 10.7 nM. Besides, on human 5-HT2A receptor (setting [1]), the Ki worked out at 3.62 nM.
In turn, `O=C(N[C@H]1CC[C@H](CCN2CCN(c3nccc4c3CCO4)CC2)CC1)C1CCCOC1` (mixture of isomers) [Example 53, rac-Tetrahydro-pyran-3-carboxylic acid trans-(4-{2-[4-(2,3-dihydro-furo[3,2-c]pyridin-4-yl)-piperazin-1-yl]-ethyl}-cyclohexyl)-amide] yielded a melting point of 216 °C. Further, the Ki on human D3 receptor turned out to be 28.8 nM.
Consider `CO[C@@H]1CC[C@@H](CC(=O)N[C@H]2CC[C@H](CCN3CCN(c4nccc5occc45)CC3)CC2)C1` (racemic) [Example 2, N-{trans-4-[2-(4-Furo[3,2-c]pyridin-4-yl-piperazin-1-yl)-ethyl]-cyclohexyl}-2-(trans-3-methoxy-cyclopentyl)-acetamide], for which the Ki was found to be 802 nM on human D2 receptor, 28.8 nM on human D3 receptor and 6.4 nM on human 5-HT2A receptor (setting [1]).
On to `CC(=O)N[C@H]1CC[C@H](CCN2CCN(c3nccc4occc34)CC2)CC1` [Example 1, N-{trans-4-[2-(4-Furo[3,2-c]pyridin-4-yl-piperazin-1-yl)-ethyl]-cyclohexyl}-acetamide], for which the Ki at human D2 receptor came out at 486 nM; at human D3 receptor, 18.3 nM; on human 5-HT2A receptor it was 9.1 nM.
In turn, `O=C(N[C@H]1CC[C@H](CCN2CCN(c3nccc4c3CCO4)CC2)CC1)C1CCCO1` (mixture of isomers) [Example 43, trans-N-(4-{2-[4-(2,3-Dihydrofuro[3,2-c]pyridin-4-yl)-piperazin-1-yl]-ethyl}-cyclohexyl)-rac-tetrahydrofuran-2-carboxamide] displayed a melting point of 176.5 °C. Moreover, on human 5-HT2A receptor (setting [1]), the Ki came out at 6.3 nM.
With `COCCC(=O)N[C@H]1CC[C@H](CCN2CCN(c3nccc4occc34)CC2)CC1` [Example 5, N-{trans-4-[2-(4-Furo[3,2-c]pyridin-4-yl-piperazin-1-yl)-ethyl]-cyclohexyl}-3-methoxy-propionamide], the Ki at human D2 receptor was 1350 nM; at human D3 receptor, 24 nM; on human 5-HT2A receptor (setting [1]), 8.1 nM.
As to `O=C(N[C@H]1CC[C@H](CCN2CCN(c3nccc4occc34)CC2)CC1)C1CCOCC1` [Example 11, Tetrahydro-pyran-4-carboxylic acid {trans-4-[2-(4-furo[3,2-c]pyridin-4-yl-piperazin-1-yl)-ethyl]-cyclohexyl}-amide], the figures for the inhibition constant (Ki) at human D2 receptor, at human D3 receptor and on human 5-HT2A receptor (setting [1]) were 515 nM, 55.7 nM and 2.9 nM, respectively.
The like results for `O=C(CCO)N[C@H]1CC[C@H](CCN2CCN(c3nccc4occc34)CC2)CC1` [Example 6, N-{trans-4-[2-(4-Furo[3,2-c]pyridin-4-yl-piperazin-1-yl)-ethyl]-cyclohexyl}-3-hydroxy-propionamide] were, in that order, 959 nM, 19.9 nM and 10.3 nM.
With `COCCC(=O)N[C@H]1CC[C@H](CCN2CCN(c3nccc4sccc34)CC2)CC1` [Example 19, 3-Methoxy-N-{trans-4-[2-(4-thieno[3,2-c]pyridin-4-yl-piperazin-1-yl)-ethyl]-cyclohexyl}-propionamide], the Ki was found to be 305 nM at human D2 receptor, 1.9 nM on human D3 receptor and 3.5 nM at human 5-HT2A receptor.
With `CS(=O)(=O)N[C@H]1CC[C@H](CCN2CCN(c3nccc4sccc34)CC2)CC1` [Example 30, N-{trans-4-[2-(4-Thieno[3,2-c]pyridin-4-yl-piperazin-1-yl)-ethyl]-cyclohexyl}-methanesulfonamide], the values for the Ki at human D2 receptor, at human D3 receptor and at human 5-HT2A receptor (setting [1]) were 265 nM, 4.3 nM and 2.9 nM, respectively.
As for `O=C(N[C@H]1CC[C@H](CCN2CCN(c3nccc4c3CCO4)CC2)CC1)c1ccc(Cl)cc1Cl` [Example 132, trans-2,4-Dichloro-N-(4-{2-[4-(2,3-dihydro-furo[3,2-c]pyridin-4-yl)-piperazin-1-yl]-ethyl}-cyclohexyl)-benzamide], the melting point was 203.5 °C. Besides, the Ki on human D3 receptor was found to be 26.7 nM. The Ki on human 5-HT2A receptor (setting [1]) was 21.7 nM.
On to `O=C(N[C@H]1CC[C@H](CCN2CCN(c3nccc4sccc34)CC2)CC1)C1CCOCC1` [Example 24, Tetrahydro-pyran-4-carboxylic acid {trans-4-[2-(4-thieno[3,2-c]pyridin-4-yl-piperazin-1-yl)-ethyl]-cyclohexyl}-amide], for which the Ki at human D2 receptor came to 992 nM; at human D3 receptor, 3.6 nM; on human 5-HT2A receptor it was 1.7 nM.
`O=C(N[C@H]1CC[C@H](CCN2CCN(c3nccc4c3CCO4)CC2)CC1)C(O)C(F)(F)F` (mixture of isomers) [Example 112, trans-(RS)—N-(4-{2-[4-(2,3-Dihydro-furo[3,2-c]pyridin-4-yl)-piperazin-1-yl]-ethyl}-cyclohexyl)-3,3,3-trifluoro-2-hydroxy-propionamide] returned a melting point of 204 °C. The Ki at human D3 receptor is 37.9 nM.
Take `CCS(=O)(=O)N[C@H]1CC[C@H](CCN2CCN(c3nccc4sccc34)CC2)CC1` [Example 31, Ethanesulfonic acid {trans-4-[2-(4-thieno[3,2-c]pyridin-4-yl-piperazin-1-yl)-ethyl]-cyclohexyl}-amide]: the Ki came out at 217 nM at human D2 receptor, 4.3 nM on human D3 receptor and 2.9 nM at human 5-HT2A receptor (setting [1]).
For `COCC(=O)N[C@H]1CC[C@H](CCN2CCN(c3nccc4sccc34)CC2)CC1` [Example 22, 2-Methoxy-N-{trans-4-[2-(4-thieno[3,2-c]pyridin-4-yl-piperazin-1-yl)-ethyl]-cyclohexyl}-acetamide], the Ki on human D2 receptor was 220 nM; on human D3 receptor it was 3.2 nM; at human 5-HT2A receptor (setting [1]), 2.2 nM.
`CO[C@@H]1CC[C@@H](CC(=O)N[C@H]2CC[C@H](CCN3CCN(c4nccc5sccc45)CC3)CC2)C1` (racemic) [Example 21, 2-(trans-3-Methoxy-cyclopentyl)-N-{trans-4-[2-(4-thieno[3,2-c]pyridin-4-yl-piperazin-1-yl)-ethyl]-cyclohexyl}-acetamide]: the Ki at human D2 receptor stood at 271 nM; at human D3 receptor, 3.6 nM; on human 5-HT2A receptor (setting [1]) it was 3.7 nM.
The like results for `CCC(=O)N[C@H]1CC[C@H](CCN2CCN(c3nccc4sccc34)CC2)CC1` [Example 18, N-{trans-4-[2-(4-Thieno[3,2-c]pyridin-4-yl-piperazin-1-yl)-ethyl]-cyclohexyl}-propionamide] were, in that order, 163 nM, 1.6 nM and 2.6 nM.
